Data on eleven molecules can be found in ChEMBL document CHEMBL1201862, “PubChem BioAssay data set” (2004).

Among the test systems are SK-MEL-5; OVCAR-5; NCI-H522; IGROV-1; UO-31; SK-OV-3; HCT-15; 786-0; MOLT-4; K562; A498; U-251; UACC-257; A549; SF-539; SNB-75; SW-620; HCC 2998.
Experiment in all cases: NCI tumour cell line growth inhibition, 48 h

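48-hour exposure; five concentrations; linearly interpolated endpoints. At the GI50, growth is halved.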 The source made the active and inactive calls. Rule as the data show it: active = GI50 up to about 1.1 µM and inactive = higher.

For `CC1(C)CCCC2(C)C3C(O)CC2(C)C(O)C31` (stereo not drawn), the GI50 with SK-MEL-5, with OVCAR-5, in the experiment on NCI-H522, with IGROV-1, with UO-31 and with SK-OV-3 was > 100 µM (inactive) throughout. The GI50 in the experiment with HCT-15 is above 100 µM; in the experiment with 786-0, < 0.01 µM (active); with MOLT-4, > 100 µM (inactive); in the experiment on K562, > 100 µM (inactive); in the experiment with A498, > 100 µM (inactive); with U-251, > 100 µM (inactive). Also, the GI50 with UACC-257, in the experiment with A549, with SF-539, in the experiment with SNB-75, in the experiment on SW-620 and in the experiment on HCC 2998 was > 100 µM (inactive) each time.

As for `O=C(O)C12C3CCC(O3)C1(C(=O)O)C1CCC2O1` (stereo not drawn), the GI50 in the experiment on SK-MEL-5, in the experiment with OVCAR-5, in the experiment with NCI-H522, in the experiment with IGROV-1, in the experiment with UO-31 and in the experiment on SK-OV-3 was > 100 µM (inactive) each time. Besides, the GI50 in the experiment on HCT-15 is above 100 µM; in the experiment with 786-0, > 100 µM (inactive); in the experiment with MOLT-4 it was > 100 µM (inactive); in the experiment on K562, > 100 µM (inactive); in the experiment with A498, > 100 µM (inactive); with U-251 it was > 100 µM (inactive). Further, the GI50 in the experiment on UACC-257, with A549, with SF-539, in the experiment on SNB-75, in the experiment on SW-620 and in the experiment with HCC 2998 was > 100 µM (inactive) throughout.

With `O=C1C(=Cc2c(O)cc(O)cc2O)C(=O)c2ccccc21`, the GI50 in the experiment with SK-MEL-5 was > 100 µM (inactive); with OVCAR-5, > 43 µM (inactive); in the experiment on NCI-H522, > 46 µM (inactive); in the experiment on IGROV-1, > 43.5 µM (inactive); with UO-31, > 100 µM (inactive); with SK-OV-3, > 100 µM (inactive). Besides, the GI50 in the experiment with HCT-15 is above 46.8 µM; in the experiment on 786-0, > 42.1 µM (inactive); in the experiment on MOLT-4, 39.8 µM (inactive); in the experiment with K562, > 51.8 µM (inactive); in the experiment on A498 it was 45.1 µM (inactive); in the experiment with U-251, > 42.9 µM (inactive). For the same molecule, the GI50 with UACC-257 was > 42.5 µM (inactive); with A549, > 100 µM (inactive); with SF-539, > 42.7 µM (inactive); in the experiment with SNB-75, 26.3 µM (inactive); with SW-620 it was > 42.1 µM (inactive); in the experiment with HCC 2998, > 41.9 µM (inactive).

For the molecule `N#C/C(=C1\OC(=N)C(c2ccccc2)C1=O)c1ccccc1` (stereo not drawn), the GI50 is 26.9 µM (inactive) in the experiment on SK-MEL-5; > 100 µM (inactive) in the experiment with OVCAR-5; 8.81 µM (inactive) with NCI-H522; 30.5 µM (inactive) with IGROV-1; 19.6 µM (inactive) in the experiment on UO-31; > 100 µM (inactive) with SK-OV-3. Moreover, the GI50 in the experiment on HCT-15 was 22.1 µM; with 786-0, 25 µM (inactive); in the experiment with MOLT-4 it was 18.7 µM (inactive); in the experiment on K562 it was 22.6 µM (inactive); in the experiment on A498, > 100 µM (inactive); in the experiment with U-251, > 100 µM (inactive). The GI50 in the experiment on UACC-257 was 23 µM (inactive); in the experiment with A549 it was > 100 µM (inactive); with SF-539 it was > 31.6 µM (inactive); in the experiment with SNB-75, 28.3 µM (inactive); in the experiment with SW-620, 23.1 µM (inactive); in the experiment on HCC 2998, 90.2 µM (inactive).

As for `N#C/C(=C/c1ccc2c(c1)OCO2)C(=O)c1ccccc1`, the GI50 in the experiment with SK-MEL-5, in the experiment with OVCAR-5, with NCI-H522, in the experiment with IGROV-1, with UO-31 and with SK-OV-3 was > 100 µM (inactive) in each case. Moreover, the GI50 in the experiment with HCT-15 is above 100 µM; with 786-0, > 100 µM (inactive); in the experiment on MOLT-4 it was > 100 µM (inactive); with K562, > 100 µM (inactive); in the experiment on A498, > 100 µM (inactive); in the experiment on U-251 it was > 100 µM (inactive). For the same molecule, the GI50 in the experiment with UACC-257, with A549, in the experiment on SF-539, with SNB-75, in the experiment on SW-620 and in the experiment on HCC 2998 was > 100 µM (inactive) in each case.

In the case of `COC(=O)C1CCCC2(C1)OCCO2` (stereo not drawn), the GI50 in the experiment with SK-MEL-5, in the experiment with OVCAR-5, with NCI-H522, in the experiment with IGROV-1, with UO-31 and with SK-OV-3 was > 100 µM (inactive) in each case. In addition, the GI50 in the experiment on HCT-15 is above 100 µM; in the experiment with 786-0 it was > 100 µM (inactive); in the experiment with MOLT-4 it was > 100 µM (inactive); with K562 it was > 100 µM (inactive); with A498, > 100 µM (inactive); in the experiment with U-251, > 100 µM (inactive). Moreover, the GI50 in the experiment with UACC-257, with A549, with SF-539, in the experiment on SNB-75, in the experiment with SW-620 and in the experiment with HCC 2998 was > 100 µM (inactive) throughout.

`O=C1c2ccccc2C2(O)N(c3ccccc3)C(=S)N(c3ccccc3)C12O` (stereo not drawn): the GI50 in the experiment on SK-MEL-5 is > 100 µM (inactive); in the experiment on OVCAR-5 it was > 100 µM (inactive); in the experiment on NCI-H522, > 100 µM (inactive); in the experiment with IGROV-1, > 100 µM (inactive); in the experiment with UO-31, 92.7 µM (inactive); in the experiment on SK-OV-3 it was > 100 µM (inactive). In addition, the GI50 in the experiment with HCT-15 was above 100 µM; with 786-0, > 100 µM (inactive); in the experiment on MOLT-4, > 100 µM (inactive); in the experiment on K562, > 100 µM (inactive); in the experiment on A498, > 100 µM (inactive); in the experiment on U-251, > 100 µM (inactive). Besides, the GI50 in the experiment on UACC-257, in the experiment on A549, with SF-539, in the experiment with SNB-75, in the experiment with SW-620 and in the experiment on HCC 2998 was > 100 µM (inactive) in each case.

For the molecule `CC1(c2cccc(C3CC4(CCC3=O)OCCCCO4)c2)OCCO1` (stereo not drawn), the GI50 in the experiment with SK-MEL-5, with OVCAR-5, in the experiment on NCI-H522, in the experiment on IGROV-1, in the experiment with UO-31 and in the experiment with SK-OV-3 was > 100 µM (inactive) throughout. Further, the GI50 in the experiment with HCT-15 is above 100 µM; with 786-0, > 100 µM (inactive); with MOLT-4, > 100 µM (inactive); in the experiment on K562, > 100 µM (inactive); in the experiment with A498 it was > 100 µM (inactive); in the experiment on U-251, > 100 µM (inactive). Further, the GI50 in the experiment on UACC-257 is > 100 µM (inactive); in the experiment on A549, > 100 µM (inactive); in the experiment with SF-539, > 100 µM (inactive); in the experiment with SNB-75 it was 92.7 µM (inactive); in the experiment with SW-620, > 100 µM (inactive); in the experiment on HCC 2998, > 100 µM (inactive).

For the molecule `CN1CCc2cc3c4cc2C1Cc1ccc(cc1)Oc1cc(ccc1O)CC1c2c(cc(O)c(c2O4)O3)CCN1C` (stereo not drawn), the GI50 with SK-MEL-5 was 2.39 µM (inactive); in the experiment on OVCAR-5, 8.2 µM (inactive); in the experiment on NCI-H522, 2.79 µM (inactive); in the experiment on IGROV-1, 4.43 µM (inactive); in the experiment with UO-31, 3.44 µM (inactive); with SK-OV-3, 3.1 µM (inactive). The GI50 was 1.91 µM in the experiment on HCT-15; 5.26 µM (inactive) in the experiment on 786-0; 2.03 µM (inactive) with MOLT-4; 0.9 µM (active) with K562; > 10 µM (inactive) in the experiment on A498; 1.69 µM (inactive) with U-251. Further, the GI50 in the experiment with UACC-257 was 1.95 µM (inactive); with A549 it was 2.45 µM (inactive); in the experiment with SF-539, 1.67 µM (inactive); in the experiment with SNB-75 it was 3.53 µM (inactive); with SW-620, 2.22 µM (inactive); in the experiment on HCC 2998, 2.06 µM (inactive).

Regarding `C=C1C(=O)C23CC1CCC2C12CO[C@@H]4OCC(C)(CC[C@@H]1OC3=O)C42` (stereo partly drawn), the GI50 with SK-MEL-5 is 14.8 µM (inactive); with OVCAR-5, 15.8 µM (inactive); with NCI-H522, 1.01 µM (active); in the experiment with IGROV-1, 6.95 µM (inactive); in the experiment on UO-31 it was 9.71 µM (inactive); in the experiment on SK-OV-3 it was 23.3 µM (inactive). Moreover, the GI50 with HCT-15 was 2.9 µM; with 786-0, 2.24 µM (inactive); in the experiment with MOLT-4 it was 3.01 µM (inactive); in the experiment with K562, 7.69 µM (inactive); in the experiment on A498, 19.4 µM (inactive); in the experiment with U-251, 14 µM (inactive). Also, the GI50 in the experiment with UACC-257 was 4.98 µM (inactive); in the experiment with A549 it was 10.9 µM (inactive); in the experiment on SF-539, 7.14 µM (inactive); in the experiment on SNB-75 it was 16.4 µM (inactive); in the experiment on SW-620, 2.49 µM (inactive); in the experiment with HCC 2998 it was 16.4 µM (inactive).

For the molecule `CCN(CC)CCCNC(=O)c1ccc([N+](=O)[O-])cc1O`, the GI50 in the experiment with SK-MEL-5, in the experiment with OVCAR-5, with NCI-H522, in the experiment on IGROV-1, in the experiment with UO-31 and with SK-OV-3 was > 100 µM (inactive) each time. The GI50 in the experiment with HCT-15 is above 100 µM; in the experiment on 786-0, > 100 µM (inactive); in the experiment on MOLT-4 it was > 100 µM (inactive); in the experiment on K562, > 100 µM (inactive); in the experiment on A498 it was > 100 µM (inactive); in the experiment on U-251, > 100 µM (inactive). Further, the GI50 in the experiment on UACC-257, in the experiment on A549, with SF-539, with SNB-75, in the experiment on SW-620 and in the experiment on HCC 2998 was > 100 µM (inactive) throughout.
